Measurements from patent publication US20250270208A1, “BICYCLIC HETEROCYCLES AS MRGPRX2 ANTAGONISTS” (Incyte Corporation, priority 2023, published 2025).

Assays:
MRGPRX2 [1] = target: T1, MRGPRX2 (Homo sapiens, UniProt Q96LB1); experiment: MRGPRX2 FLIPR calcium mobilization assay; format: cell-based; design: host or cells: CHO-K1; conditions: CHO-K1 cells stably expressing human MRGPRX2; Ca2+ release; agonist Cortistatin-14 at EC80
T1 sequence (Q96LB1 1-330): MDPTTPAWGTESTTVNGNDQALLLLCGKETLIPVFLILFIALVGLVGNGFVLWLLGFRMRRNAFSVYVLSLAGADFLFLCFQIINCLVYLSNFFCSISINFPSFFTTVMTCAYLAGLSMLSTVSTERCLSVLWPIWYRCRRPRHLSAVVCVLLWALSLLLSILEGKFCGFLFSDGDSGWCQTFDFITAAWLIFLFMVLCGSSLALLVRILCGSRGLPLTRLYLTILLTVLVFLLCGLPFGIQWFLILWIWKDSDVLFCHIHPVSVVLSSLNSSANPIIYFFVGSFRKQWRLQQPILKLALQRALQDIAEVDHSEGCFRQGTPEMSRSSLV
Experimental: Chinese hamster ovary (CHO-K1) cells stably expressing human MRGPRX2 were purchased from Genescript (Piscataway, NJ). The cells were maintained in culture medium (Ham's F-12K) containing 10% (v/v) FBS, 200 μg/mL Zeocin, 100 units/mL penicillin G and 100 μg/mL streptomycin (Life Technologies, Carlsbad, CA). For the assay, the cells were harvested and resuspended with culture medium without Zeocin before plating at 8000 cells per well in 20 μL in 384-well black clear bottom cell culture plates (VWR, Radnor, PA). After 24 hour culture at 37° C. and 5% CO2, the cells were loaded with 20 μL/well of calcium dye (FLIPR Calcium 6 Assay Kit, Molecular Devices, San Jose, CA) diluted in loading buffer (1× Hank's Balanced Salt Solution (HBSS), 5 mM probenecid, 20 mM 4-(2-hydroxyethyl)-1-piperazineethanesulfonic acid (HEPES), pH 7.4, VWR, Radnor, PA) followed with 45 min incubation at 37° C. and 40 min. at r.t. in the dark. Cells were then treated with the addition of 10 uL/well test compounds with a range of increasing concentrations diluted in the assay buffer (1×HBSS, 20 mM HEPES, pH 7.4, VWR, Radnor, PA) with FLIPR Penta (Molecular Devices. San Jose, CA) and incubated for 30 min. at r.t. Ca^2+ release was measured with FLIPR Penta with 10 s basal fluorescence measurement, then 12.5 μL of 5× agonist Cortistatin-14 (Tocris, Minneapolis, MN) at final concentration corresponding to the EC80 were added followed with continued fluorescence signal monitoring for an additional 110 s. The base line adjusted (median of first 10 s base line) max value of the Relative Fluorescence Unit (RFU) was plotted against compound concentrations. Wells with no compound were served as the positive controls, and wells with high concentration of reference antagonist were used as negative controls. IC50 curves were globally fitted with 3- or 4-parameter Hill equation in a Genedata Screener (Genedata Basel, Switzerland).

MRGPRX2 [2] = target: T1, MRGPRX2; experiment: MRGPRX2 IP1 HTRF assay; format: cell-based; design: host or cells: CHO-K1; conditions: CHO-K1 cells stably expressing human MRGPRX2; IP1 accumulation; agonist Cortistatin 14 1 μM
Experimental: This assay measures compound inhibition of myo-Inositol 1 phosphate (IP1) accumulation in CHO-K1 cells. Chinese hamster ovary (CHO-K1) cells stably expressing human MRGPRX2 were purchased from GenScript (Piscataway, NJ).
For the HTRF IP1 determination, an IP-One GqKit (Perkin Elmer Cisbio, Waltham, MA), which includes all reagents and buffers in this protocol, was used. The cells were maintained in culture medium (Ham's F-12K) containing 10% (v/v) FBS, and 200 μg/mL Zeocin. For the assay, the cells were harvested and resuspended in culture medium with 2% FBS and without Zeocin, then were passed through a 40 μm filter. Cells were added at 20000 cells in a 5 μL/well to a 384-well white small volume cell culture plate (Greiner VWR, Radnor, PA) which contained 50 nL/well of test compound serially diluted at a selected concentration range in DMSO. 5 μL/well of prepared 2× Stimulation Buffer 2 was then added to plates and was incubated at 37° C. with 5% CO2 for 1 h. 5 μL/well of agonist Cortistatin 14 (Bio-TechneR&D Systems, Minneapolis, MN) in 1× Stimulation Buffer 2, for a 1 μM final concentration, was then added to plates and incubated at 37° C. with 5% CO2 for 1 h. 6 μL/well of 1:20 diluted Detection Reagent Mix (d2 and Cryptate) was added to the plates and incubated for 1 h in the dark. Plates were read on the PHERAstar microplate reader (BMG Labtech Cary, NC) to determine the HTRF ratio of the acceptor and donor emission signals. The IP1 concentrations were calculated from a standard curve following the IP-One GQ kit instructions. Wells with DMSO only and wells with high concentration of reference antagonist were used as controls for normalization. Compound IC50 curves were globally fitted with 3- or 4-parameter Hill equation in a Genedata Screener (Genedata Basel, Switzerland).

Row | SMILES | IC50 (MRGPRX2 [1]) | IC50 (MRGPRX2 [2])
1 | FC(F)(F)c1cc(N[C@H]2CCC[C@@H](Nc3cc(N4CCOCC4)ccn3)C2)c2cc(Cl)ccc2n1 [Example 3, (1S,3R)-N^1-(6-Chloro-2-(trifluoromethyl)quinolin-4-yl)-N^3-(4-morpholinopyridin-2-yl)cyclohexane-1,3-diamine] | 100 to 1000 nM | 100 to 1000 nM
2 | Cn1cnc2ccnc(N[C@H]3CC[C@@H](Nc4cc(C(F)(F)F)nc5ccc(Cl)cc45)CC3)c21 [Example 7, (1s,4s)-N^1-(6-Chloro-2-(trifluoromethyl)quinolin-4-yl)-N^4-(3-methyl-3H-imidazo[4,5-c]pyridin-4-yl)cyclohexane-1,4-diamine] | 0.1 to 100 nM | 0.1 to 100 nM
3 | Cn1cnc2ncnc(N[C@@H]3CCC[C@H](Nc4cc(C(F)(F)F)nc5ccc(Cl)cc45)C3)c21 [Example 8, (1S,3R)-N^1-(6-Chloro-2-(trifluoromethyl)quinolin-4-yl)-N^3-(7-methyl-7H-purin-6-yl)cyclohexane-1,3-diamine] | 0.1 to 100 nM | 0.1 to 100 nM
4 | FC(F)(F)c1cc(N[C@H]2CCC[C@@H](Nc3ccnc4ncccc34)C2)c2cc(Cl)ccc2n1 [Example 27, (1S,3R)-N^1-(6-Chloro-2-(trifluoromethyl)quinolin-4-yl)-N^3-(1,8-naphthyridin-4-yl)cyclohexane-1,3-diamine] | 0.1 to 100 nM | 100 to 1000 nM
5 | Cn1ncc2c(N[C@@H]3CCC[C@H](Nc4cc(C(F)(F)F)nc5ccc(Cl)cc45)C3)ncnc21 [Example 31] | 0.1 to 100 nM | 0.1 to 100 nM

Next, values leading:

Row | IC50 (MRGPRX2 [1]) | IC50 (MRGPRX2 [2]) | SMILES
6 | 0.1 to 100 nM | 100 to 1000 nM | Cn1ncc2ccnc(N[C@@H]3CCC[C@H](Nc4cc(C(F)(F)F)nc5ccc(Cl)cc45)C3)c21 [Example 2, (1S,3R)-N^1-(6-Chloro-2-(trifluoromethyl)quinolin-4-yl)-N^3-(1-methyl-1H-pyrazolo[3,4-c]pyridin-7-yl)cyclohexane-1,3-diamine]
7 | 0.1 to 100 nM | 100 to 1000 nM | FC(F)(F)c1cc(N[C@H]2CCC[C@@H](Nc3nccc4cnccc34)C2)c2cc(Cl)ccc2n1 [Example 6, (1S,3R)-N^1-(6-Chloro-2-(trifluoromethyl)quinolin-4-yl)-N^3-(2,6-naphthyridin-1-yl)cyclohexane-1,3-diamine]
8 | 0.1 to 100 nM | 100 to 1000 nM | FC(F)(F)c1cc(N[C@H]2CCC[C@@H](Nc3ccccn3)C2)c2cc(Cl)ccc2n1 [Example 12, (1S,3R)-N^1-(6-Chloro-2-(trifluoromethyl)quinolin-4-yl)-N^3-(pyridin-2-yl)cyclohexane-1,3-diamine]
9 | 0.1 to 100 nM | 0.1 to 100 nM | Fc1ccc2nc(C(F)(F)F)cc(N[C@H]3CCC[C@@H](Nc4nccn5cncc45)C3)c2c1 [Example 28, (1S,3R)-N^1-(6-fluoro-2-(trifluoromethyl)quinolin-4-yl)-N^3-(imidazo[1,5-a]pyrazin-8-yl)cyclohexane-1,3-diamine]
10 | 0.1 to 100 nM | 0.1 to 100 nM | FC(F)(F)c1cc(N[C@H]2CCC[C@@H](Nc3nccn4cncc34)C2)c2cc(Br)ccc2n1 [Example 29, (1S,3R)-N^1-(6-bromo-2-(trifluoromethyl)quinolin-4-yl)-N^3-(imidazo[1,5-a]pyrazin-8-yl)cyclohexane-1,3-diamine]
11 | 0.1 to 100 nM | 0.1 to 100 nM | FC(F)(F)c1cc(N[C@H]2CCC[C@@H](Nc3nccn4nccc34)C2)c2cc(Cl)ccc2n1 [Example 30, (1S,3R)-N^1-(6-Chloro-2-(trifluoromethyl)quinolin-4-yl)-N^3-(pyrazolo[1,5-a]pyrazin-4-yl)cyclohexane-1,3-diamine]
12 | 0.1 to 100 nM | 0.1 to 100 nM | Cn1c(N[C@@H]2CCC[C@H](Nc3cc(C(F)(F)F)nc4ccc(Cl)cc34)C2)nc2cnccc21 [Example 32, (1S,3R)-N^1-(6-Chloro-2-(trifluoromethyl)quinolin-4-yl)-N^3-(1-methyl-1H-imidazo[4,5-c]pyridin-2-yl)cyclohexane-1,3-diamine]
